Results as given in PMC7036132, “Effects of the Salt-Processing Method on the Pharmacokinetics and Tissue Distribution of Orally Administered Morinda officinalis How. Extract” (Journal of Analytical Methods in Chemistry, 2020).

Legend:
[1] = Pharmacokinetics in rat plasma after oral administration of MO and SMO extract (UPLC-MS/MS); type: in vivo, Sprague-Dawley (SD) rats; conditions: for Cmax: male, Sprague-Dawley, rat, plasma, po, 40 g/kg; for Cmax / AUC (0-t) / AUC (0-∞) / CL/F / MRT (0-t) / T max / V/F / t1/2z: n = 6
Experimental: For LC-MS/MS analysis, data acquisition and instrument control were performed using MassLynx 4.1 software (Waters Corp., Milford, MA, USA). The analysis column was an Acquity UPLC HSS T3 column (100 mm × 2.1 mm, 1.8 μm, Waters) with a temperature of 40°C. The mobile phase was acetonitrile containing 0.1% formic acid (A) and 0.1% formic acid aqueous solution (B). The elution gradient was 0.00–0.50 min with 2% B; 0.51–5.00 min with 2%–30% B; and 5.01–7.00 min with 40% B. The flow rate was 0.2 mL/min.
The Waters triple quadruple mass spectrometer (Xevo TQD, Waters Corp., Milford, MA, USA) equipped with an electrospray ionization source (ESI) was used in negative ion mode. The desolvation gas was nitrogen with a flow rate of 500 L/h at a temperature of 250°C. All detected compounds were measured in multiple reaction monitoring (MRM) mode.
10 μL of IS working solution and 400 μL of methanol were added to 100 μL plasma. The solution was vortexed for 10 min and then centrifuged at 12,000 rpm for 5 min. The supernatant was shifted to another centrifugation tube and dried with nitrogen at 37°C. The residue was redissolved in 100 μL acetonitrile and centrifuged for 5 min at 12,000 rpm. Five microliters of supernatant was drawn and analyzed by UPLC-MS/MS.
The SD rats (6, male) were housed at 22 ± 2°C and fasted for 12 h with drinking water available ad libitum. MO and SMO ethanol extract were orally administered at a dose of 40 g/kg (equivalent to 6.44 and 3.95 mg/kg of monotropein, 0.088 and 0.091 mg/kg of rubiadin, and 0.174 and 0.178 mg/kg of rubiadin 1-methyl ether). Blood samples (0.5 mL) were collected from the venous plexus of the eye socket at 0.083, 0.25, 0.5, 1.0, 1.5, 2.0, 2.5, 4.0, 6.0, 12.0, and 24 h under anesthesia. Then, the blood samples were centrifuged at 4500 rpm for 10 min, and then the plasma was immediately transferred to new tubes and stored at −80°C until analysis. The pharmacokinetic parameters were calculated using DAS software (3.0 version, China Food and Drug Administration) based on noncompartmental method. All data were recorded as mean ± SD.

[2] = Stability of the three components in rat plasma and tissues (QC samples); conditions: n = 5
Experimental: The preparation of calibration standards was done as follows: The appropriate working solution was spiked into blank plasma or tissues to obtain concentrations of 75∼0.047 μg/mL for monotropein, 396∼1.54 μg/mL for rubiadin, and 596∼1.16 μg/mL for rubiadin 1-methyl ether. The QC concentrations for monotropein were 0.14 μg/mL, 2 μg/mL, and 28.1 μg/mL; for rubiadin, they were 1.6 μg/mL, 50.6 μg/mL, and 712.5 μg/mL; and for rubiadin 1-methyl ether, they were 3.9 μg/mL, 54.6 μg/mL, and 765 μg/mL. The QC samples used for the recovery, matrix effect, intra- and interday accuracy, precision, and stability studies were prepared in the same way as that of the calibration standards. The solutions were stored for one week at −20°C.
The QC samples used for the recovery QC samples were used to judge the stability, and the storage conditions were as follows: (1) freeze-thaw stability, (2) at room temperature for 4 h, and (3) put into the autosampler for 8 h, and (4) at −20°C for 30 days. The permitted range was within 15%.

[3] = rat kidney, high Conc (rubiadin 4.63, rubiadin 1-methyl ether 3.49, monotropein 28.13 μg/mL)
[4] = rat kidney, low Conc (rubiadin 0.21, rubiadin 1-methyl ether 0.15, monotropein 1.41 μg/mL)
[5] = rat kidney, middle Conc (rubiadin 0.98, rubiadin 1-methyl ether 0.72, monotropein 6.2 μg/mL)
[6] = rat liver, high Conc (rubiadin 4.63, rubiadin 1-methyl ether 3.49, monotropein 28.13 μg/mL)
[7] = rat liver, low Conc (rubiadin 0.21, rubiadin 1-methyl ether 0.15, monotropein 1.41 μg/mL)
[8] = rat liver, middle Conc (rubiadin 0.98, rubiadin 1-methyl ether 0.72, monotropein 6.2 μg/mL)
[9] = rat lung, high Conc (rubiadin 4.63, rubiadin 1-methyl ether 3.49 μg/mL)
[10] = rat lung, low Conc (rubiadin 0.21, rubiadin 1-methyl ether 0.15 μg/mL)
[11] = rat lung, middle Conc (rubiadin 0.98, rubiadin 1-methyl ether 0.72 μg/mL)
[12] = rat plasma, high Conc (rubiadin 712.5, rubiadin 1-methyl ether 765, monotropein 28.1 μg/mL)
[13] = rat plasma, low Conc (rubiadin 3.6, rubiadin 1-methyl ether 3.9, monotropein 0.14 μg/mL)
[14] = rat plasma, middle Conc (rubiadin 50.6, rubiadin 1-methyl ether 54.6, monotropein 2 μg/mL)
[15] = rat small intestine, high Conc (rubiadin 4.63, rubiadin 1-methyl ether 3.49, monotropein 28.13 μg/mL)
[16] = rat small intestine, low Conc (rubiadin 0.21, rubiadin 1-methyl ether 0.15, monotropein 1.41 μg/mL)
[17] = rat small intestine, middle Conc (rubiadin 0.98, rubiadin 1-methyl ether 0.72, monotropein 6.2 μg/mL)

COc1c(C)c(O)cc2c1C(=O)c1ccccc1C2=O [Rubiadin 1-methyl ether, rubiadin 1-methyl ether]
Cmax compared among the three components ([1]; especially in the SMO groups): the highest | Cmax ([1]; oral MO extract 40 g/kg): 432 ± 37 ng/mL | Cmax ([1]; oral SMO extract 40 g/kg): 509 ± 35.1 ng/mL | AUC (0-t) ([1]; oral MO extract 40 g/kg): 1059.49 ± 98.081 μg/L ∗ h | AUC (0-∞) ([1]; oral MO extract 40 g/kg): 1074.351 ± 102.019 μg/L ∗ h | CL/F ([1]; oral MO extract 40 g/kg): 0.037 ± 0.372 L/g/h | MRT (0-t) ([1]; oral MO extract 40 g/kg): 2.908 ± 0.151 H | T max ([1]; oral MO extract 40 g/kg): 0.5 ± 0.00 H | V/F ([1]; oral MO extract 40 g/kg): 0.287 ± 0.067 L/g | t1/2z ([1]; oral MO extract 40 g/kg): 5.379 ± 1.514 H | AUC (0-t) ([1]; oral SMO extract 40 g/kg): 1244.329 ± 82.805 μg/L ∗ h | AUC (0-∞) ([1]; oral SMO extract 40 g/kg): 1253.526 ± 84.691 μg/L ∗ h | CL/F ([1]; oral SMO extract 40 g/kg): 0.032 ± 0.210 L/g/h | MRT (0-t) ([1]; oral SMO extract 40 g/kg): 2.855 ± 0.15 H | T max ([1]; oral SMO extract 40 g/kg): 0.5 ± 0.00 H | V/F ([1]; oral SMO extract 40 g/kg): 0.196 ± 0.363 L/g | t1/2z ([1]; oral SMO extract 40 g/kg): 4.27 ± 0.865 H | Cmax and AUC0-t, SMO groups compared with the MO group ([1]; oral extract 40 g/kg): elevated remarkably | Stability RE%, At 25°C for 12 h [2, 3]: −3.58% | Stability RE%, Autosampler at 4°C for 24 h [2, 3]: −0.36% | Stability RE%, Freeze–thaw cycles [2, 3]: −1.57% | Stability RE%, −20°C for 30 days [2, 3]: 0.54% | Stability RE%, At 25°C for 12 h [2, 4]: 0.35% | Stability RE%, Autosampler at 4°C for 24 h [2, 4]: −0.36% | Stability RE%, Freeze–thaw cycles [2, 4]: 0.15% | Stability RE%, −20°C for 30 days [2, 4]: −5.1% | Stability RE%, At 25°C for 12 h [2, 5]: 0.24% | Stability RE%, Autosampler at 4°C for 24 h [2, 5]: −0.68% | Stability RE%, Freeze–thaw cycles [2, 5]: −0.54% | Stability RE%, −20°C for 30 days [2, 5]: −2.49% | Stability RE%, At 25°C for 12 h [2, 6]: 0.42% | Stability RE%, Autosampler at 4°C for 24 h [2, 6]: −0.66% | Stability RE%, Freeze–thaw cycles [2, 6]: −0.68% | Stability RE%, −20°C for 30 days [2, 6]: −2.58% | Stability RE%, At 25°C for 12 h [2, 7]: −2.1% | Stability RE%, Autosampler at 4°C for 24 h [2, 7]: 0.54% | Stability RE%, Freeze–thaw cycles [2, 7]: −1.52% | Stability RE%, −20°C for 30 days [2, 7]: −0.58% | Stability RE%, At 25°C for 12 h [2, 8]: −3.42% | Stability RE%, Autosampler at 4°C for 24 h [2, 8]: −3.81% | Stability RE%, Freeze–thaw cycles [2, 8]: −5.42% | Stability RE%, −20°C for 30 days [2, 8]: −0.45% | Stability RE%, At 25°C for 12 h [2, 9]: −0.06% | Stability RE%, Autosampler at 4°C for 24 h [2, 9]: −2.42% | Stability RE%, Freeze–thaw cycles [2, 9]: −0.53% | Stability RE%, −20°C for 30 days [2, 9]: 0.05% | Stability RE%, At 25°C for 12 h [2, 10]: −0.57% | Stability RE%, Autosampler at 4°C for 24 h [2, 10]: −8.51% | Stability RE%, Freeze–thaw cycles [2, 10]: −2.57% | Stability RE%, −20°C for 30 days [2, 10]: −1.54% | Stability RE%, At 25°C for 12 h [2, 11]: −5.71% | Stability RE%, Autosampler at 4°C for 24 h [2, 11]: −0.65% | Stability RE%, Freeze–thaw cycles [2, 11]: −4.85% | Stability RE%, −20°C for 30 days [2, 11]: −0.55% | Stability RE%, At 25°C for 12 h [2, 12]: −5.1% | Stability RE%, Autosampler at 4°C for 24 h [2, 12]: −3.14% | Stability RE%, Freeze–thaw cycles [2, 12]: −3.71% | Stability RE%, −20°C for 30 days [2, 12]: −0.86% | Stability RE%, At 25°C for 12 h [2, 13]: −1.79% | Stability RE%, Autosampler at 4°C for 24 h [2, 13]: −1.49% | Stability RE%, Freeze–thaw cycles [2, 13]: −0.94% | Stability RE%, −20°C for 30 days [2, 13]: −3.26% | Stability RE%, At 25°C for 12 h [2, 14]: −4.21% | Stability RE%, Autosampler at 4°C for 24 h [2, 14]: −1.65% | Stability RE%, Freeze–thaw cycles [2, 14]: −1.35% | Stability RE%, −20°C for 30 days [2, 14]: −0.23% | Stability RE%, At 25°C for 12 h [2, 15]: 0.25% | Stability RE%, Autosampler at 4°C for 24 h [2, 15]: 0.48% | Stability RE%, Freeze–thaw cycles [2, 15]: −0.74% | Stability RE%, −20°C for 30 days [2, 15]: 1.35% | Stability RE%, At 25°C for 12 h [2, 16]: −0.69% | Stability RE%, Autosampler at 4°C for 24 h [2, 16]: −0.42% | Stability RE%, Freeze–thaw cycles [2, 16]: −6.57% | Stability RE%, −20°C for 30 days [2, 16]: −1.25% | Stability RE%, At 25°C for 12 h [2, 17]: −0.85% | Stability RE%, Autosampler at 4°C for 24 h [2, 17]: −0.62% | Stability RE%, Freeze–thaw cycles [2, 17]: −0.57% | Stability RE%, −20°C for 30 days [2, 17]: −0.25%
